IC50 data for 4 molecules are collected here from ChEMBL document CHEMBL1135844, “Novel human metabolites of the angiotensin-II antagonist tasosartan and their pharmacological effects” (Bioorg Med Chem Lett, 2002).

This test deals with T1, Type-1 angiotensin II receptor (Homo sapiens, UniProt P30556).
T1 sequence (P30556 whole entry): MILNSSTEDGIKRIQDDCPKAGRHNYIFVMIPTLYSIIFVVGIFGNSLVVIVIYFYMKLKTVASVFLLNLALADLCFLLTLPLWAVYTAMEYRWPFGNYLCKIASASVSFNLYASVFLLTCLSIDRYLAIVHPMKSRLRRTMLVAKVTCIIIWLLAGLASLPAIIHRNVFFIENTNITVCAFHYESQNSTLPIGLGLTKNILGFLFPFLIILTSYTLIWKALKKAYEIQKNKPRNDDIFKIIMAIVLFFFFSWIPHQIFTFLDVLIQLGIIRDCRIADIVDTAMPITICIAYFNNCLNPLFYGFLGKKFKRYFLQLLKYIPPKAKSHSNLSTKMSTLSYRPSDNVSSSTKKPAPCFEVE
Briefly: Compound was tested in vitro for inhibitory activity against human Angiotensin II receptor in cultured preadipocytes. It is filed as cell-based.
As a reminder, the IC50 is the concentration needed to halve the response being measured. Read a high IC50 as a need for much substance. Consider `Cc1nc(C(=O)O)nc2c1CCC(=O)N2Cc1ccc(-c2ccccc2-c2nnn[nH]2)cc1`, for which the IC50 is 23 nM.

For `O=c1ccc2c(CO)nc(CO)nc2n1Cc1ccc(-c2ccccc2-c2nn[nH]n2)cc1`, the IC50 was found to be 44 nM. `Cc1nc(C(=O)O)c2c(n1)N(Cc1ccc(-c3ccccc3-c3nnn[nH]3)cc1)C(=O)CC2` yielded an IC50 of 44 nM. With `Cc1nc(C)c2c(n1)N(Cc1ccc(-c3ccccc3-c3nnn[nH]3)cc1)C(=O)CC2` [TASOSARTAN], it took 38 nM to reach half-maximal inhibition (IC50).
